Experimental findings from patent US20050058658A1, “Compositions and methods for immunotherapy of human immunodeficiency virus (HIV)” (priority 2003, published 2005) are described below.

B1: IL-18: interleukin (protein, UniProt P70380 36-192, looked up)
Interleukin-18: NFGRLHCTTAVIRNINDQVLFVDKRQPVFEDMTDIDQSASEPQTRLIIYMYKDSEVRGLAVTLSVKDSKMSTLSCKNKIISFEEMDPPENIDDIQSDLIFFQKRVPGHNKMEFESSLYEGHFLACQKEDDAFKLILKKKDENGDKSVMFTLTNLHQS
B2: IL-12: Interleukin 12 (protein, UniProt P43431 23-215; P43432 23-335, looked up)
Interleukin-12 subunit alpha: RVIPVSGPARCLSQSRNLLKTTDDMVKTAREKLKHYSCTAEDIDHEDITRDQTSTLKTCLPLELHKNESCLATRETSSTTRGSCLPPQKTSLMMTLCLGSIYEDLKMYQTEFQAINAALQNHNHQQIILDKGMLVAIDELMQSLNHNGETLRQKPPVGEADPYRVKMKLCILLHAFSTRVVTINRVMGYLSSA
Interleukin-12 subunit beta: MWELEKDVYVVEVDWTPDAPGETVNLTCDTPEEDDITWTSDQRHGVIGSGKTLTITVKEFLDAGQYTCHKGGETLSHSHLLLHKKENGIWSTEILKNFKNKTFLKCEAPNYSGRFTCSWLVQRNMDLKFNIKSSSSSPDSRAVTCGMASLSAEKVTLDQRDYEKYSVSCQEDVTCPTAEETLPIELALEARQQNKYENYSTSFFIRDIIKPDPPKNLQMKPLKNSQVEVSWEYPDSWSTPHSYFSLKFFVRIQRKKEKMKETEEGCNQKGAFLVEKTSTEVQCKGGNVCVQAQDRYYNSSCSKWACVPCRVRS
B3: KC: chemokine (protein, UniProt P12850 25-96, looked up)
Growth-regulated alpha protein: APIANELRCQCLQTMAGIHLKNIQSLKVLPSGPHCTQTEVIATLKNGREACLDPEAPLVQKIVQKMLKGVPK
B4: IL-11: interleukin (protein, UniProt P20809 22-199, looked up)
Interleukin-11: PGPPPGPPRVSPDPRAELDSTVLLTRSLLADTRQLAAQLRDKFPADGDHNLDSLPTLAMSAGALGALQLPGVLTRLRADLLSYLRHVQWLRRAGGSSLKTLEPELGTLQARLDRLLRRLQLLMSRLALPQPPPDPPAPPLAPPSSAWGGIRAAHAILGGLHLTLDWAVRGLLLLKTRL
B5: IL-4: interleukin (protein, UniProt P07750 21-140, looked up)
Interleukin-4: HIHGCDKNHLREIIGILNEVTGEGTPCTEMDVPNVLTATKNTTESELVCRASKVLRIFYLKHGKTPCLKKNSSVLMELQRLFRAFRCLDSSISCTMNESKSTSLKDFLESLKSIMQMDYS
B6: IL-7: interleukin (protein, UniProt P10168 26-154, looked up)
Interleukin-7: ECHIKDKEGKAYESVLMISIDELDKMTGTDSNCPNNEPNFFRKHVCDDTKEAAFLNRAARKLKQFLKMNISEEFNVHLLTVSQGTQTLVNCTSKEEKNVKEQKKNDACFLKRLLREIKTCWNKILKGSI
B7: MIP-1α: chemokine (protein, UniProt P10855 24-92, looked up)
C-C motif chemokine 3: APYGADTPTACCFSYSRKIPRQFIVDYFETSSLCSQPGVIFLTKRNRQICADSKETWVQEYITDLELNA

Where no end group is shown, it is not given here.

The first test has as its system freshly isolated dendritic cells (CD11c+ splenocytes). The experiment in a line: Dendritic cell (DC) assay: IL-12 release. In kind it is cell-based, BALB/c mice.
Conditions: not given
An excerpt:
In a preferred embodiment, dendritic cell (DC) assay is used to follow interleukin-12 (IL-12) release from freshly isolated dendritic cells as an index of DC activation (see section 13). […] Briefly, by way of example but not limitation, a DC assay can be carried out as follows: freshly isolated dendritic cells (CD11c^+ splenocytes, e.g., isolated from the spleens of BALB/c mice within ten hours of assaying the activity) are suspended at a density of 0.5×10^6 cells per mL in cytokine supplemented culture media (GM-CSF, 1.0 ng/ml; IL-4, 1.0 ng/ml; IFNg, 3 ng/ml; anti mouse CD40; 0.5 mg/ml). […] Mouse IL-12 release from the dendritic cells (CD11c^+ splenocytes) is then measured using ELISA.
DCs were isolated from the spleens of male BALB/c mice 8-12 weeks of age (Harlan Bioproducts for Science, Indianapolis, Ind.), using the magnetic assisted cell separation (MACS) system purchased from Miltenyi Biotech. In summary: Spleens were aseptically removed from mice and placed into a petri dish containing 5 mL holding media (DMEM/F12 supplemented with 10% FCS and antibiotics). Each spleen was then injected with ˜0.5 mls collagenase D solution (1 mg/mL in 10 mM Hepes-NaOH, pH 7.4, 150 mM NaCl, 5 mM MgCl2, 1.8 mM CaCl2), placed into 5-10 mL collagenase D, cut into 5-6 pieces and incubated at 37° C. for 45-60 min. Collagenase-digested spleens were then processed with glass slides and passed through a 70 μm nylon mesh cell strainer. After the strainer was flushed with 40 mL culture media, cells were centrifuged (8 min @ 200×G), suspended in 1 mL PBS and subjected to red blood cell lysis by incubating the cell suspension for 5 min at room temperature in 10 mL lysis buffer (155 mM NH4Cl, 10 mM KHCO3, 0.1 mM EDTA), followed by dilution in PBS to 50 mL and centrifugation (8 min @ 200×g). The splenocytes were then suspended in 10 mL MACS buffer (PBS pH 7.2, supplemented with 2 mM EDTA and 0.5% BSA), passed through a 40 μm nylon mesh cell strainer which was flushed with 40 mL MACS buffer. A preliminary cell count was taken at this time, prior to centrifugation (8 min @ 200×G). The splenocytes were suspended at a density of 10^8 cells per 400 μL MACS buffer. Paramagnetic MicroBeads coated with anti-CD11c antibody were mixed with the splenocyte suspension (100 μL per 10^8 cells), incubated at +4° C. for 15 min, washed, suspended in 1.0 mL MACS buffer and passed through a MS+separation column placed within a strong magnetic field. CD11c^+ cells were retained in the column whereas CD11c^− cells were washed off the column as the flow-through cell fraction. CD11c^+ cells were then collected by removing the column out of the magnetic field and flushing the column twice with 1 mL of MACS buffer. CD11c^+ cells were washed once with culture media and suspended at a density of 0.5×10^6 cells per mL in cytokine supplemented culture media {DMEM/F12 supplemented with 10% FCS and gentamicin containing mouse GM-CSF (1 ng/mL), mouse IL-4 (1 ng/mL), mouse IFNγ (3 ng/mL) and anti mouse CD40 (0.5 mg/mL)}.
Mouse IL12 release from CD11c^+ splenocytes was measured using ELISA. Briefly, CD11c+ cell culture supernatants were sampled following an overnight incubation (usually 15-18 hrs). Media samples (100 μL) were added to ELISA plates coated with anti mouse IL12 (p70) capture antibody (R&D #MAB419; 250 ng in 100 μL per well) and incubated either at 37° C. or room temperature for 2 hrs. The ELISA plates were washed extensively with wash buffer after which 100 μL per well of detection antibody/detection reagent (biotinylated anti-mouse IL12; R&D #BAF419 at 50 ng/mL and streptavidin-HRP) was added. The ELISA plates were again incubated for 2 hours, washed and exposed to […] substrate solution (Pierce #34021) for 20 min. The substrate reaction was stopped by adding 100 μL/well 2M H2SO4. ELISA plates were read at 450 nm (corrected at 540 nm) and mIL12(p70) levels were calculated using an intra-ELISA standard curve (range: 2000-31.25 pg/mL).
Turning to `[Cl-].[Cl-].[Mg+2]` [MgCl2], the “Inhibition of DC-activity induced by crude ARP preparations” value (shortened to “Inhibition of DC-activity induced”) is reported as “did not”. As for `[Ca+2].[Cl-].[Cl-]` [CaCl2], the “Inhibition of DC-activity induced” value was “did not”. In the case of `[Cl][Cu][Cl]` [CuCl2], the “Inhibition of DC-activity induced” value was “inhibition of activity in mM-μM concentration range”. Consider `[Cl-].[Cl-].[Zn+2]` [ZnCl2], for which the “Inhibition of DC-activity induced” value is given as “inhibition of activity in mM-μM concentration range”.

The same test, now with this note: tested for synergism and inhibition.
In the case of B1, the “DC/mIL12 Release” value is “−”.

In the next test the test system is Mouse sarcoma 180 cells.
Assay: not given
It is filed as cell-based.
Conditions: not given
On the procedure: In one embodiment, a NK cell assay is used to assess ARP-induced cytotoxic activity of NK-like cells. Briefly, by way of example but not limitation, a NK cell assay can be carried out as follows: large granular lymphocytes (LGLs) are co-cultured with tumor cells at various ratios (effector to target ratio) for four days at 37° C., 5% CO2. […] The culture is terminated at the end of day 4 and vitally stained using a MTT cell viability quantification assay (see Mossman, T. J. Immunol. Methods 1983, 65:55; and Sigma Chemical MTT (M5655) product application note). Culture media is aspirated and the remaining cells are washed and replaced with DMEM/F12 plus FCS, containing MTT. The cells are further incubated for 4-5 hours at 37° C. Absorbance is measured with the aid of a plate reader. Decreased absorbance indicated a decrease in the number of viable cells per well (i.e., cytotoxicity). Absorbance is measured again after the MTT is solubilized by replacement of the medium with 2-propanol containing HCl, which gives a uniform color throughout the well. NK-inducing activity is calculated relative to negative (PBS/BSA) and positive (internal standard) controls.
Spleens (10-15 per experiment) were aseptically removed from male Balb/C mice 6-10 weeks of age. Splenocytes were “squeezed” out of spleens using 2 sterile glass microscope slides. Cells were collected in approximately 10 ml of DMEM/F12 containing 10% fetal calf serum (FCS) and gentamicin (50 μg/ml). Single cell suspensions were generated by passing collected cells through a 70 μm nylon mesh screen. After washing the cell pellet once with PBS (centrifuged at 675×g for 5 min), red blood cells were lysed by brief hypotonic shock (i.e. exposure to sterile distilled, deionized water, followed immediately with appropriate volumes of 10×PBS to return to isotonicity). Remaining cells were centrifuged and resuspended in DMEM/F12+10% FCS and transferred to 75 cm^2 flasks each containing 25 mls DMEM/F12+10% FCS (cells from 5 spleens per flask). The cells were incubated for 60 min. at 37° C. to selectively remove readily adherent cells (mainly fibroblasts and macrophages). After the incubation, the flasks were gently shaken and the non-adherent cells were removed, pelleted by centrifugation, and resuspended in DMEM/F12 (no supplements) (1.0 mL/10^8 cells). A 1.0 mL volume of these cell suspensions were carefully layered onto a 70%/60%/40% (2 mL/4 mL/4 mL) Percoll™ gradients in 15 ml centrifuge tubes and centrifuged for 30 min at 675×G. The cells which sediment at the 40/60 interface represent primarily large granular lymphocytes (LGLs), enriched with NK cells. These cells were carefully removed with a pasteur pipet, centrifuged, washed once with PBS and resuspended in approximately 5 mL DMEM/F12 supplemented with gentamicin (50 μg/mL) and 10% fetal calf serum. Cell counts and appropriate dilutions of LGL cells were made with these cells, as described below. For convenience this LGL cell preparation is interchangeably referred to as NK cells.
Mouse sarcoma 180 cells were seeded into 96 well plates at a density of 5×10^3 cells per well in 100 μl DMEM/F12, supplemented with 10% FCS and gentamicin (50 μg/mL). […] NK cells were added in 100 μL of supplemented DMEM/F12 at designated densities: 0 NK cells/well; 5×10^4 NK cells/well (1:10 target/effector ratio); 1.25×10^5 NK cells/well (1:25 target/effector ratio); 2.5×10^5 NK cells/well (1:50 target/effector ratio); and, 5×10^5 NK cells/well (1:100 target/effector ratio). (Note: routinely, only the 1:50 and 1:100 ratios were used for screening purposes. IL2 was added as a media supplement with final concentration of 125 U/mL.). Co-cultures were incubated for 4 days at 37° C., 5% CO2, and terminated and vitally stained using a MTT cell viability quantification assay (see Mossman, T. J. Immunol. Methods 65:55 (1983); and Sigma Chemical MTT (M5655) product application note). […]
Consider B2, for which the “Effect on NK-CMC (footnotes of Table 16)” value was “synergistically increases NK-CMC at low concentrations of IL-2”.

The test is the same for the next values; noted with them: wide range of concentrations, in the presence and absence of IL-2 (125 U/ml).
Take Cecropin P1: the “NK-CMC Activity” value is recorded as “−”.

Turning to Magainin I, the “NK-CMC Activity” value was “−”. Consider “Cecropin A: defensin / anti-microbial peptide (KWKLFKKIEKVGQNIRDGIIKAGPAVAVVGQATQIAK; UniProt P01507 27-63, looked up)”, for which the “NK-CMC Activity” value is listed as “−”.

For the molecule IL-15: interleukin, the “NK-CMC Activity” value is recorded as “−”. On the same count and under the same terms, next, “Cecropin B: defensin / anti-microbial peptide (KWKVFKKIEKMGRNIRNGIVKAGPAIAVLGEAKAL; ends and bridges not checked; UniProt P01508 27-61, looked up)”: “−”. Consider IFNα, for which the “NK-CMC Activity” value is given as “−”. On the same count and under the same terms, then TGFα: growth factor, with “−”; and JE/MCP-1: chemokine, with “−”. Same read-out and setting: next, Magainin II: “−”; B3: “−”. Regarding B4, the “NK-CMC Activity” value is on record as “−”. Regarding B5, the “NK-CMC Activity” value is reported as “−”. On to B6, for which the “NK-CMC Activity” value is on record as “−”. Take B7: the “NK-CMC Activity” value was “−”.
